Experimental data from patent US20220364989A1, “METHOD FOR MEASURING PHOTOTOXICITY OR PHOTOALLERGY AND REAGENT FOR USE THEREIN” (FUJIFILM Corporation, priority 2018, published 2022).
Like-named read-outs stand apart in the source and are kept apart here.

Legend:
[1] = Average score of NAC and NAL depletion and phototoxicity or photoallergy determination, fluorescence detection
Method: (§1) After being spun down in a centrifuge, the reaction solutions are irradiated with light at 2,000 μW/cm^2 using an SXL-2500V2 ultraviolet irradiation apparatus (manufactured by SERIC., Ltd.) for 1 hour, followed by incubation at 25° C. in a light-shielded state for 23 hours. As controls without light irradiation, reaction solutions are prepared, followed by incubation at 25° C. in a light-shielded state for 24 hours.
(§2) As the conditions without light irradiation, the 1 mmol/L test substance solutions were each reacted with the nucleophilic reagents, namely, NAC and NAL, at 25° C. for 24 hours. As the conditions with light irradiation, the 1 mmol/L test substance solutions were each irradiated at room temperature with light at 2,000 μW/cm^2 for 1 hour and were then reacted at 25° C. for 23 hours.
(§3) All reactions were performed on the 96-well plate. For each sample, n=3. As comparative controls, reaction solutions to which only the solvents, which are used to dissolve the test substances, were added were also prepared. The reaction solutions were prepared such that the concentrations of NAC and NAL were 5 μmon and the concentration of the test substance was 0.25 mmol/L. After 24 hours, HPLC measurements were made by two detection methods, namely, light absorption detection on a photodiode array (PDA) detector and fluorescence detection on a fluorescence detector. For PDA detection, a trifluoroacetic acid (TFA) aqueous solution was added to the reaction solutions to a final TFA concentration of 0.5% (v/v) before use in the HPLC measurements. For fluorescence detection, each sample was diluted tenfold with a 0.5% (v/v) trifluoroacetic acid (TFA) aqueous solution before use in the HPLC measurements.
(§4) The depletions of the nucleophilic reagents (NAC and NAL) were determined by UV detection at 281 nm or fluorescence detection at an excitation wavelength of 284 nm and a fluorescence wavelength of 333 nm under the HPLC measurement conditions given in “(5) HPLC Measurement” above.
(§5) As the conditions without light irradiation, the liquid mixtures were each reacted with the nucleophilic reagents, namely, NAC and NAL, at 25° C. for 24 hours. As the conditions with light irradiation, the liquid mixtures were each irradiated at room temperature with light at 2,000 μW/cm^2 for 1 hour and were then reacted at 25° C. for 23 hours.
(§6) All reactions were performed on the 96-well plate. For each sample, n=3. Reaction solutions to which only the solvent used for calculation of the depletions of NAC and NAL was added were also prepared. The reaction solutions were prepared such that the concentrations of NAC and NAL were 5 μmon and the concentration of the test substance was 0.5 mmol/L. After 24 hours, HPLC measurements were made by two detection methods, namely, light absorption detection on a photodiode array (PDA) detector and fluorescence detection on a fluorescence detector. For PDA detection, a trifluoroacetic acid (TFA) aqueous solution was added to the reaction solutions to a final TFA concentration of 0.5% (v/v) before use in the HPLC measurements.

[2] = NAC depletion under and without ultraviolet irradiation, HPLC with UV detection (281 nm)
Method: (§7) A 1 mmol/L solution of a test substance in water, acetonitrile, acetone, or 5% by mass dimethyl sulfoxide (DMSO)/acetonitrile solution is prepared and used as a test substance solution. A solvent in which the test substance is soluble at a concentration of 1 mmol/L is used. If the test substance is soluble in a plurality of solvents, the solvent is selected in the following order of priority: water, acetonitrile, acetone, and 5% by mass DMSO/acetonitrile.
(§8) Test substance solutions are prepared on a 96-well plate (U96 PP-0.5 ML NATURAL, Thermo (NUNC)), mainly using a 12-channel pipette, and the reagents are added in the following amounts:
(§9) Nucleophilic reagents (NAC and NAL): 150 μL
Test substance solution: 50 μL
(§10) The plate is firmly sealed with a plate seal (resistant embossed seal, Shimadzu GLC Ltd.) and is shaken on a plate shaker (Titramax 100, Heidolph Instruments). After being spun down in a centrifuge, the reaction solutions are irradiated with light at 2,000 μW/cm^2 using an SXL-2500V2 ultraviolet irradiation apparatus (manufactured by SERIC., Ltd.) for 1 hour, followed by incubation at 25° C. in a light-shielded state for 23 hours. As controls without light irradiation, reaction solutions are prepared, followed by incubation at 25° C. in a light-shielded state for 24 hours.
(§11) For measurements using a fluorescence detector, 180 μL of the reaction stop solution (0.5% (v/v) TFA) is dispensed into each well of another plate in advance, and 20 μL of each sample is added so that the sample is diluted 10-fold.
(§12) The depletion of NAC or NAL is calculated from the average (n=3) peak area of unreacted NAC or NAL after the reaction and the average (n=3) peak area of NAC or NAL in a standard solution (no test substance added) by the following equations:
(§13) NAC depletion (% depletion)=[1−(average peak area of unreacted NAC after reaction/average peak area of NAC) in standard solution (no test substance added)]×100
(§14) The average peak area of unreacted NAC after the reaction is the average area calculated from three measurements on unreacted NAC after the reaction. The average peak area of NAC in a standard solution (no test substance added) is the average area calculated from three measurements on NAC in a reaction solution prepared by adding the solvent used for dissolution of the test substance instead of the test substance solution.
as §2, §3

[3] = NAL depletion under and without ultraviolet irradiation, HPLC with fluorescence detection (284 nm excitation, 333 nm fluorescence); settings: for NAL Depletion (%) / NAL Depletion (%) without light irradiation: without light irradiation
Method: as §7, §8, §9
Test substance solution: 50 μL
as §10, §11, §12
(§15) NAL depletion (% depletion)=[1−(average peak area of unreacted NAL after reaction/average peak area of NAL) in standard solution (no test substance added)]×100
(§16) The average peak area of unreacted NAL after the reaction is the average area calculated from three measurements on unreacted NAL after the reaction. The average peak area of NAL in a standard solution (no test substance added) is the average area calculated from three measurements on NAL in a reaction solution prepared by adding the solvent used for dissolution of the test substance instead of the test substance solution.
as §2, §3

[4] = NAL depletion under and without ultraviolet irradiation, HPLC with UV detection (281 nm)
Method: as §7, §8, §9
Test substance solution: 50 μL
as §10, §11, §12, §15, §16, §2, §3

[5] = Average score of NAC and NAL depletion and phototoxicity or photoallergy determination, UV detection
Method: as §1, §2, §3, §4, §5, §6

[6] = cited from earlier work
[7] = cited from earlier work; remark: listed apart in the source
[8] = NAC depletion under and without ultraviolet irradiation, HPLC with fluorescence detection (284 nm excitation, 333 nm fluorescence); settings: for NAC Depletion (%) / NAC Depletion (%) without light irradiation: without light irradiation
Method: as §7, §8, §9
Test substance solution: 50 μL
as §10, §11, §12, §13, §14, §2, §3

[9] = without light irradiation, single compound
[10] = 25° C. 24 hours light-shielded, test substance solution 1 mmol/L
[11] = 2,000 μW/cm^2 for 1 hour then 25° C. 23 hours, test substance solution 1 mmol/L
[12] = average of NAC and NAL depletion
[13] = photoallergic compound concentration 0.05 mg/mL
[14] = photoallergic compound concentration 0.2 mg/mL
[15] = photoallergic compound concentration 0.5 mg/mL
[16] = under light irradiation, photoallergic compound concentration 0.05 mg/mL
[17] = under light irradiation, photoallergic compound concentration 0.2 mg/mL
[18] = under light irradiation, photoallergic compound concentration 0.5 mg/mL
[19] = without light irradiation, photoallergic compound concentration 0.05 mg/mL
[20] = without light irradiation, photoallergic compound concentration 0.2 mg/mL
[21] = without light irradiation, photoallergic compound concentration 0.5 mg/mL
[22] = under light irradiation, single compound

CC1(C)SC2C(NC(=O)Cc3ccccc3)C(=O)N2C1C(=O)O (stereo not drawn) [compound 44]
Difference in depletion (under light irradiation - without light irradiation) Average score (%) ([1]; single compound): 0.9% | Average score (%) [1, 9]: 1.0% | Difference in depletion (under light irradiation - without light irradiation) NAC (%) [2]: 1.5% | NAC Depletion (%) without light irradiation [2, 10]: 1.4% | NAC Depletion (%) under light irradiation [2, 11]: 2.8% | Difference in depletion (under light irradiation - without light irradiation) NAL (%) ([3]; single compound): 0.4% | NAL Depletion (%) ([3]; single compound): 0.8% | Difference in depletion (under light irradiation - without light irradiation) NAL (%) [4]: −0.2% | NAL Depletion (%) without light irradiation [4, 10]: 1.9% | NAL Depletion (%) under light irradiation [4, 11]: 1.6% | Difference in depletion (under light irradiation - without light irradiation) Average score (%) [5]: 0.6% | Average score (%) under light irradiation [5, 12]: 2.2% | Average score (%) without light irradiation [5, 12]: 1.6% | In vivo phototoxicity ([6]; reported in References 1 to 3): Negative | In vivo photoallergy ([7]; reported in References 1 and 2): Negative | Difference in depletion (under light irradiation - without light irradiation) NAC (%) ([8]; single compound): 1.3% | NAC Depletion (%) ([8]; single compound): 1.1%

CCO [compound 50]
Difference in depletion (under light irradiation - without light irradiation) Average score (%) ([1]; single compound): −0.1% | Average score (%) [1, 9]: 0.1% | Difference in depletion (under light irradiation - without light irradiation) NAC (%) [2]: 0.4% | NAC Depletion (%) without light irradiation [2, 10]: 0.0% | NAC Depletion (%) under light irradiation [2, 11]: 0.4% | Difference in depletion (under light irradiation - without light irradiation) NAL (%) ([3]; single compound): 0.0% | NAL Depletion (%) ([3]; single compound): 0.0% | Difference in depletion (under light irradiation - without light irradiation) NAL (%) [4]: −1.3% | NAL Depletion (%) without light irradiation [4, 10]: 1.3% | NAL Depletion (%) under light irradiation [4, 11]: 0.0% | Difference in depletion (under light irradiation - without light irradiation) Average score (%) [5]: −0.5% | Average score (%) under light irradiation [5, 12]: 0.2% | Average score (%) without light irradiation [5, 12]: 0.6% | In vivo phototoxicity ([6]; reported in References 1 to 3): Negative | In vivo photoallergy ([7]; reported in References 1 and 2): Negative | Difference in depletion (under light irradiation - without light irradiation) NAC (%) ([8]; single compound): −0.3% | NAC Depletion (%) ([8]; single compound): 0.3%

Tetrachlorosalicylanilide [1-4]
Difference in depletion (under light irradiation - without light irradiation) Average score (%) [1, 13]: 54.5% | Difference in depletion (under light irradiation - without light irradiation) Average score (%) [1, 14]: 58.9% | Difference in depletion (under light irradiation - without light irradiation) Average score (%) [1, 15]: 54.3% | Average score (%) under light irradiation [1, 16]: 65.4% | Average score (%) under light irradiation [1, 17]: 85.2% | Average score (%) under light irradiation [1, 18]: 93.0% | Average score (%) without light irradiation [1, 19]: 10.9% | Average score (%) without light irradiation [1, 20]: 26.2% | Average score (%) without light irradiation [1, 21]: 38.7% | NAC Depletion (%) under light irradiation [2, 16]: (58.0) % | NAC Depletion (%) under light irradiation [2, 17]: (−96.9) % | NAC Depletion (%) under light irradiation [2, 18]: (−338.2) % | NAC Depletion (%) without light irradiation [2, 19]: 34.2% | NAC Depletion (%) without light irradiation [2, 20]: 70.1% | NAC Depletion (%) without light irradiation [2, 21]: 93.7% | Difference in depletion (under light irradiation - without light irradiation) NAL (%) [3, 13]: 32.5% | Difference in depletion (under light irradiation - without light irradiation) NAL (%) [3, 14]: 72.6% | Difference in depletion (under light irradiation - without light irradiation) NAL (%) [3, 15]: 87.1% | NAL Depletion (%) under light irradiation [3, 13]: 32.5% | NAL Depletion (%) under light irradiation [3, 14]: 72.9% | NAL Depletion (%) under light irradiation [3, 15]: 88.9% | NAL Depletion (%) without light irradiation [3, 13]: 0.0% | NAL Depletion (%) without light irradiation [3, 14]: 0.2% | NAL Depletion (%) without light irradiation [3, 15]: 1.8% | Difference in depletion (under light irradiation - without light irradiation) NAL (%) [4, 13]: 30.3% | Difference in depletion (under light irradiation - without light irradiation) NAL (%) [4, 14]: 66.5% | Difference in depletion (under light irradiation - without light irradiation) NAL (%) [4, 15]: 78.7% | NAL Depletion (%) under light irradiation [4, 16]: 30.1% | NAL Depletion (%) under light irradiation [4, 17]: 67.1% | NAL Depletion (%) under light irradiation [4, 18]: (81.3) % | NAL Depletion (%) without light irradiation [4, 19]: −0.2% | NAL Depletion (%) without light irradiation [4, 20]: 0.6% | NAL Depletion (%) without light irradiation [4, 21]: 2.6% | Average score (%) under light irradiation [5, 16]: 44.0% | Average score (%) under light irradiation [5, 17]: −14.9% | Average score (%) under light irradiation [5, 18]: −128.5% | Average score (%) without light irradiation [5, 19]: 17.0% | Average score (%) without light irradiation [5, 20]: 35.4% | Average score (%) without light irradiation [5, 21]: 48.2% | Difference in depletion (under light irradiation - without light irradiation) NAC (%) [8, 13]: 76.5% | Difference in depletion (under light irradiation - without light irradiation) NAC (%) [8, 14]: 45.3% | Difference in depletion (under light irradiation - without light irradiation) NAC (%) [8, 15]: 21.5% | NAC Depletion (%) under light irradiation [8, 13]: 98.2% | NAC Depletion (%) under light irradiation [8, 14]: 97.5% | NAC Depletion (%) under light irradiation [8, 15]: 97.2% | NAC Depletion (%) without light irradiation [8, 13]: 21.7% | NAC Depletion (%) without light irradiation [8, 14]: 52.2% | NAC Depletion (%) without light irradiation [8, 15]: 75.6%

[Na+].[O-][n+]1ccccc1[S-] [compound 26]
Difference in depletion (under light irradiation - without light irradiation) Average score (%) ([1]; single compound): 52.4% | Average score (%) [1, 9]: 4.2% | Difference in depletion (under light irradiation - without light irradiation) NAC (%) [2]: 89.3% | NAC Depletion (%) without light irradiation [2, 10]: 10.7% | NAC Depletion (%) under light irradiation [2, 11]: 100.0% | Difference in depletion (under light irradiation - without light irradiation) NAL (%) ([3]; single compound): 13.3% | NAL Depletion (%) ([3]; single compound): 0.0% | NAL Depletion (%) without light irradiation [4, 10]: −34.1% | NAL Depletion (%) under light irradiation [4, 11]: 21.9% | Average score (%) under light irradiation [5, 12]: 61.0% | In vivo photoallergy ([7]; reported in References 1 and 2): Positive | Difference in depletion (under light irradiation - without light irradiation) NAC (%) ([8]; single compound): 91.6% | NAC Depletion (%) ([8]; single compound): 8.4%

CC(O)CO (racemic) [No. 54, Propylene glycol]
Average score (%) [1, 22]: 0.3% | Average score (%) [5, 22]: 0.1% | In vivo phototoxicity ([6]; in vivo): Negative | In vivo photoallergy ([7]; in vivo): Negative
